How the values were obtained:
[1] = target: T1, ABC1 (Mus musculus, UniProt P41233); assay: Cholesterol efflux from 3H-cholesterol-labeled J774 macrophages to apolipoprotein-A1; assay type: cell-based; parameters: Mouse macrophages (J774) were labeled with ^3H-cholesterol; endogenous in cells; host or cells: J774 mouse macrophages; conditions: 20 μg/ml human apolipoprotein-A1, indicated concentrations, 24 hours, data only in FIG. 4
Excerpt: A cholesterol efflux assay measures the ability of cells to transfer cholesterol to an extracellular acceptor molecule and is dependent on ABC1 function. A standard cholesterol efflux assay is set out in Marcil et al., Arterioscler. Thromb. Vasc. Biol. 19:159–169, 1999, incorporated by reference herein for all purposes. Prior to this invention, this assay has not been used to identify compounds useful for reducing cholesterol transport from the gut to the blood or lymph, or for reducing LDL or serum cholesterol levels.
In this procedure, cells are loaded with radiolabeled cholesterol by any of several biochemical pathways. Cholesterol efflux of cells is measured after incubation for various times (typically 0 to 24 hours) in the presence of HDL3 or purified ApoAI. Cholesterol efflux is determined as the percentage of total cholesterol in the culture medium after various times of incubation. Increased ABC1 expression levels and/or biological activity are associated with increased efflux while decreased levels of ABC1 expression and/or biological activity are associated with decreased cholesterol efflux.
ABC1 activity can be inhibited genetically or chemically. […] After 24 hours, the medium was collected, centrifuged, and an aliquot collected for radioactivity determination by liquid scintillation counting. […]
Target sequence in this assay (P41233 whole entry): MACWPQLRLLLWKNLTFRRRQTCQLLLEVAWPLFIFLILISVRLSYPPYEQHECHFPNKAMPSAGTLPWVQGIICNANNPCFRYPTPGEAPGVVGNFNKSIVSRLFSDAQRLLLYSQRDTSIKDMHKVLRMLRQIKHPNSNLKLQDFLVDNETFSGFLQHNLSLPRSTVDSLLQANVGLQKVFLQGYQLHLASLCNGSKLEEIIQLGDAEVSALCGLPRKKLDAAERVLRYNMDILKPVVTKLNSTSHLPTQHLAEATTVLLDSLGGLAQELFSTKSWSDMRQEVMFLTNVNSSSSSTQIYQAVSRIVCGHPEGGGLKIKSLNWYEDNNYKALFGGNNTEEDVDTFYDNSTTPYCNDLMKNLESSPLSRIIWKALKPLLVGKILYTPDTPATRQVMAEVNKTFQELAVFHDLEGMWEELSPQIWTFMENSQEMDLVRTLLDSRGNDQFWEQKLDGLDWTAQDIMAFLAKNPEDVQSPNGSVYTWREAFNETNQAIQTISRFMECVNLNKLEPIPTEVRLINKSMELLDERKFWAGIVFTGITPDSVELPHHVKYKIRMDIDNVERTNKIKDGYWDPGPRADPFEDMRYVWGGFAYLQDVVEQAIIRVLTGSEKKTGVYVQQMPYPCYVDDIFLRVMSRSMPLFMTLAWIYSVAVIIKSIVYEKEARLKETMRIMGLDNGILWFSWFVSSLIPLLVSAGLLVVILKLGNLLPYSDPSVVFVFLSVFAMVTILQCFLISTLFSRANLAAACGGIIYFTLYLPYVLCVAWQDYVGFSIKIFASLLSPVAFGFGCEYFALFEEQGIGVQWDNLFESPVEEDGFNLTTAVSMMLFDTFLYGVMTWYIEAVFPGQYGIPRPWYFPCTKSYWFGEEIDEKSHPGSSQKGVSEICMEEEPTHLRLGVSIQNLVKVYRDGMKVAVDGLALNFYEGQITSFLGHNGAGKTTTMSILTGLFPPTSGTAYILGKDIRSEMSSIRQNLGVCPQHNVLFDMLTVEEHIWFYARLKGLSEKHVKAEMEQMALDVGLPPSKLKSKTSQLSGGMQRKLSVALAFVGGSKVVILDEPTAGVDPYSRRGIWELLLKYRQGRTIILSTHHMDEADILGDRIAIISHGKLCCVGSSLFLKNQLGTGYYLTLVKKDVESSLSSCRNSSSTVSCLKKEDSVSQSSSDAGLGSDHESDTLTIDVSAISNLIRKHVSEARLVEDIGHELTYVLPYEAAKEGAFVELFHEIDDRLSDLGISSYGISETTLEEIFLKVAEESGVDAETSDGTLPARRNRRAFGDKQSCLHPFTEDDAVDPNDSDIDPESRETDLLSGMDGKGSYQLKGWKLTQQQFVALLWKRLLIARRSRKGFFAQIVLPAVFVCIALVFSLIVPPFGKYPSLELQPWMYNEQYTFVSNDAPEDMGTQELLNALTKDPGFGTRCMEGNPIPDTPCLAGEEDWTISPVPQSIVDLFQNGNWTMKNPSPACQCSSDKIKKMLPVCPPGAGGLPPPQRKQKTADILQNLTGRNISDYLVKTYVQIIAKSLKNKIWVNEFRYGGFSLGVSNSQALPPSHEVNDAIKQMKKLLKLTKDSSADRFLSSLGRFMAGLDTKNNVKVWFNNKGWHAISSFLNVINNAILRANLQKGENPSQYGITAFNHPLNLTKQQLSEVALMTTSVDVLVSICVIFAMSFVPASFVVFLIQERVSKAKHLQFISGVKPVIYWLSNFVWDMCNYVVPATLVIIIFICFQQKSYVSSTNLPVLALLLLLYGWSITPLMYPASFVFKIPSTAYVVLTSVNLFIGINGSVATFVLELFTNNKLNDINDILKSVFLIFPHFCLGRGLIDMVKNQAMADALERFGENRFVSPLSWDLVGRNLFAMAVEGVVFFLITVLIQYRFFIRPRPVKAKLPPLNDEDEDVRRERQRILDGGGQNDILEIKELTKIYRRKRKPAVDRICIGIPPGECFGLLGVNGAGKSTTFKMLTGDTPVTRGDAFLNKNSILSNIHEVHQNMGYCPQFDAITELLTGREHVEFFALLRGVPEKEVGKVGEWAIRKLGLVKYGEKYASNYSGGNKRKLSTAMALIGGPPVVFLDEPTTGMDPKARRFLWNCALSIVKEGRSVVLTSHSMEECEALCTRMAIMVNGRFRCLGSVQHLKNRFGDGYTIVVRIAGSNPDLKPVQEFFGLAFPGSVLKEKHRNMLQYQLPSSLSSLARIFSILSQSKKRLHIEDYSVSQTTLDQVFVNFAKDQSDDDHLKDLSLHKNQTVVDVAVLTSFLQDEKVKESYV

[2] = target: T1, ABC1; parameters: host or cells: frog oocytes; conditions: frog oocytes induced to express ABC1; Becq et al. 1997; cited from earlier work
Target sequence in this assay (P41233 61-2261 limits assumed): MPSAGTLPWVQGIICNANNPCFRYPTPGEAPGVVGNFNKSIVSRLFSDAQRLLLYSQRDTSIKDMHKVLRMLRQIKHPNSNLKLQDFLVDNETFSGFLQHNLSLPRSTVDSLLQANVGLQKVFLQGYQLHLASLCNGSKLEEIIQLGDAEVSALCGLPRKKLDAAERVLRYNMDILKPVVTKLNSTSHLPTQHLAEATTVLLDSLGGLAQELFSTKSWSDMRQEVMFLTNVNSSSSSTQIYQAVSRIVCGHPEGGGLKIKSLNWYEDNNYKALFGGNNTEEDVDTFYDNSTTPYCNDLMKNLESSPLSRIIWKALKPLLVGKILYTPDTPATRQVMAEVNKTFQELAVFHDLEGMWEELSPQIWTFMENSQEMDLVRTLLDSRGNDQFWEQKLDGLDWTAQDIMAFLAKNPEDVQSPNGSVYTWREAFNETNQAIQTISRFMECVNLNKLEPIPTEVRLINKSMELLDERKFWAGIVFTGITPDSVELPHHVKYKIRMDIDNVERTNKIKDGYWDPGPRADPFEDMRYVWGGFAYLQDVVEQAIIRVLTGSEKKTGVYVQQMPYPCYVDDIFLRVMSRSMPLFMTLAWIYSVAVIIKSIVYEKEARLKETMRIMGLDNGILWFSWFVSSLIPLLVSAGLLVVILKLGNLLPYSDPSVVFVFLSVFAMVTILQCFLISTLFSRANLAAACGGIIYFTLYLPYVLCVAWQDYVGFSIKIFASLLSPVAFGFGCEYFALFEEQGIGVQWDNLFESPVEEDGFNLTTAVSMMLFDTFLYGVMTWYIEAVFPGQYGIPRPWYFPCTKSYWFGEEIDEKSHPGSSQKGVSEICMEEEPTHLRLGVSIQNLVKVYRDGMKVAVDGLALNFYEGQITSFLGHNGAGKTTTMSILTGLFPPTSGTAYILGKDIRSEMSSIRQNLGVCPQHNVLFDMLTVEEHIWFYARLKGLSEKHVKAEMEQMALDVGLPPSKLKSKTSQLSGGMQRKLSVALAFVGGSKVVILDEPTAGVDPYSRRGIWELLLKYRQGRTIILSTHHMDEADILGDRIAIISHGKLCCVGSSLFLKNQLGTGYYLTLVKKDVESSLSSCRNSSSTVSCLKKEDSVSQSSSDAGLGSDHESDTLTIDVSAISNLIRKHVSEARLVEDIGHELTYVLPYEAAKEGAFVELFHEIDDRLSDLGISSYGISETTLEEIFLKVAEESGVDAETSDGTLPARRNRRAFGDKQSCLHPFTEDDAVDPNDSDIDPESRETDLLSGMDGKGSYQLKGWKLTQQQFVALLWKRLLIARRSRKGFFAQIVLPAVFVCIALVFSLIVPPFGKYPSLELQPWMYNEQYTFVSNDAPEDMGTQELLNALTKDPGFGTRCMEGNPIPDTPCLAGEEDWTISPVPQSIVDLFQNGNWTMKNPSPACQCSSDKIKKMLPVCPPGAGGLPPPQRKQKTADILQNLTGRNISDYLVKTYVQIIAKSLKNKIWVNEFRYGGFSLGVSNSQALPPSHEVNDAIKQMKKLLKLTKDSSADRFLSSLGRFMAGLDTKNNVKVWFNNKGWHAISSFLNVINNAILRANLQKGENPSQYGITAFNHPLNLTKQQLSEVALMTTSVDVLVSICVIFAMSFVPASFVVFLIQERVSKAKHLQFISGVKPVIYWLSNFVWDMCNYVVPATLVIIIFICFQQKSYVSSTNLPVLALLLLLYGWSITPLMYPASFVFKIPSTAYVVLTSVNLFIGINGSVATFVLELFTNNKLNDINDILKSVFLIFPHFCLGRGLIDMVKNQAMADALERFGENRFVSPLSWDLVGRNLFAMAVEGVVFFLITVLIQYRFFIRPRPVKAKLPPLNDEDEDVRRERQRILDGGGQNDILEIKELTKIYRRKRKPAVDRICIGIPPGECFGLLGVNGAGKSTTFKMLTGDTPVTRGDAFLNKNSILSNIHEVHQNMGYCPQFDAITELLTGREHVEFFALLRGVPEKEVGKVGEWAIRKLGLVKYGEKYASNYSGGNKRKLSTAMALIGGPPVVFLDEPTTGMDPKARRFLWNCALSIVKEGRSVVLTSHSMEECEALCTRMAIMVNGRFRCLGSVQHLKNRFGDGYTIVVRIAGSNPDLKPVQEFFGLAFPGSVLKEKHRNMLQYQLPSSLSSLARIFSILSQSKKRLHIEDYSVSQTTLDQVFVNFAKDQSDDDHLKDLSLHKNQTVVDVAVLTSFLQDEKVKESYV

Compound: COc1ccc(Cl)cc1C(=O)NCCc1ccc(S(=O)(=O)NC(=O)NC2CCCCC2)cc1 [Glyburide]
- Inhibition of ABC1 activity (cholesterol efflux) [1]: inhibit ABC1 activity
- Inhibition of iodide transport [2]: inhibit iodide transport

Reference: patent publication US7166584B1, “Cholesterol transport gene” (Wisconsin Alumni Research Foundation, priority 1999, dated 2007)
